Experimental data reported in PMC8305768, “Design, Synthesis and Antiparasitic Evaluation of Click Phospholipids” (Molecules, 2021).
Where a name gives a salt, the structure may show the parent alone.

Assays:
[1] = tested on: T. cruzi Y strain intracellular amastigotes; assay: Activity against T. cruzi Y strain intracellular amastigotes (HG39 cell-line, parasite load); assay type: cell-based; details: Trypanosoma cruzi, read-out: Parassite Load Reduction (%)
Description: T. cruzi epimastigotes (Y strain) were obtained by axenic cultivation in the LIT medium, supplemented with 10% FBS (Cultilab, São Paulo, Brazil). Cultures were maintained at […] for 4–5 days until they reached the log growth phase. New cultures were made every 4 days from the initial inoculum of 2 × 10^6 parasites/mL. T. cruzi trypomastigotes (Y strain) were maintained in culture by the infection of LLC-MK2 (ATTC-CCL7) epithelial cells. This cell line was cultured in […] tissue culture bottles (TPP) in RPMI 1640 medium (Gibco), (Thermo Fischer Scientific, Carlsbad, CA, USA) supplemented with 10% FBS (Gibco) (Thermo Fischer Scientific, Carlsbad, CA, USA). Cultures were maintained at 37 °C under 5% CO2 atmosphere, and RPMI 1640 medium and SFB were exchanged every 48 h. After confluence, the cultures were treated with 1 mL of a mixture of trypsin and versene (Sigma, São Paulo, Brazil) (0.2 and 0.002%, respectively). After 24 h, a subconfluence culture was infected with the trypomastigotes in the approximate proportion of 10:1 parasites/cell. From five to seven days post infection, the trypomastigote stage was obtained from the culture supernatant. Alternatively (Figure 2), T. cruzi strain Y was maintained as previously described.

[2] = tested on: mitochondria of 786-0 cells; assay: Mitochondrial toxicity assay (MitoTracker Red CMXRos, 786-0 cells); assay type: cell-based; details: compounds 10 μM, miltefosine 10 μM or 1 μM
Description: Mitochondrial toxicity assay: This assay made use of the MitoTracker Red CMXRos dye (Thermo Fischer Scientific, Waltham, MA, USA), which stains the mitochondria in live cells and its accumulation is dependent on the presence of a membrane potential. The renal carcinoma 786-0 cell line was used for mitochondrial toxicity screening. Cells were harvested from a 75 cm^2 flask at 80% confluency by washing once with 5 mL of rt PBS and incubating with 1 mL of 0.05% v/v trypsin/0.02% v/v EDTA for 3 min. Cells were suspended in 10 mL of prewarmed cell culture media (RPMI-1 640 supplemented with 10% v/v FCS, 100 U/mL penicillin and 100 μg/mL streptomycin) and counted using a Scepter (Merck Millipore, Darmstadt, Germany). The 786-0 cells were diluted to 75,000 cells/mL and 20 μL of this suspension added to each well of a 384-well plate. Cells were incubated for 36 h at 37 °C and 5% CO2, and compounds were added using a predilution plate. The positive control was valinomycin at a final concentration of 1 μM, with the negative control being DMSO at the same concentration. Ten microliters of compounds and controls were added to cells and incubated for 6 h at 37 °C and 5% CO2 in a humidity controlled atmosphere. After incubation, 10 μL of a 200 nM solution of MitoTracker Red CMXRos in prewarmed cell culture media was added to each well, and the 786-0 cells were incubated for an additional 45 min at 37 °C and 5% CO2. MitoTracker Red CMXRos uptake was measured using an Opera Imaging System. To facilitate automatic image analysis, the layout containing the compound area and the valinomycin and DMSO control areas were created and stored. A sublayout of five evenly dispersed fields per well were used. These settings also included a measurement height of 1 μm, which was stored in an exposure file format. By using the stored settings and files, an automated run was repeatedly created and executed. The images were transferred to a file server and uploaded into Columbus 2.4.0 (PerkinElmer, Waltham, MA. USA) using the built-in helper function and analysed therein.

SMILES: CCCCCc1cn(CCCCCCCCCCCOP(=O)([O-])OCC[N+](C)(C)C)nn1 [Compound 25, 11-(4-pentyl-1H-1,2,3-triazol-1-yl)undecyl (2-(trimethylammonio)ethyl) phosphate inner salt]
- inhibition of growth at 10 µM [1]: 66.2%
- % toxicity ± SD at 10 μΜ Mitochondria [2]: 11.05%

SMILES: CCCCCCCCc1noc(CCCCCOP(=O)([O-])OCC[N+](C)(C)C)n1 [Compound 53, 5-(3-octyl-1,2,4-oxadiazol-5-yl)pentyl (2-(trimethylammonio)ethyl) phosphate inner salt]
- inhibition of growth at 10 µM [1]: 44.5%
- % toxicity ± SD at 10 μΜ Mitochondria [2]: –1.08%

SMILES: C[N+](C)(C)CCOP(=O)([O-])OCCCCCn1cc(CCCCCCCCN)nn1 [Compound 35, 5-(4-(8-aminooctyl)-1H-1,2,3-triazol-1-yl)pentyl (2-(trimethylammonio)ethyl) phosphate inner salt]
- inhibition of growth at 10 µM [1]: 0%
- % toxicity ± SD at 10 μΜ Mitochondria [2]: 6.58%

SMILES: C[N+](C)(C)CCOP(=O)([O-])OCCCCCCCCCCCn1cc(CC2CCCCC2)nn1 [Compound 29, 11-(4-(cyclohexylmethyl)-1H-1,2,3-triazol-1-yl)undecyl (2-(trimethylammonio)ethyl) phosphate inner salt]
- inhibition of growth at 10 µM [1]: 69.9%
- % toxicity ± SD at 10 μΜ Mitochondria [2]: 1.08%

SMILES: CCCCCCCCc1noc(CCCCCCCCCCOP(=O)([O-])OCC[N+](C)(C)C)n1 [Compound 54, 10-(3-octyl-1,2,4-oxadiazol-5-yl)decyl (2-(trimethylammonio)ethyl) phosphate inner salt]
- inhibition of growth at 10 µM [1]: 90.5%
- % toxicity ± SD at 10 μΜ Mitochondria [2]: 8.56%

SMILES: C[N+](C)(C)CCOP(=O)([O-])OCCCCCCCCCCCn1cc(CCCCCCCCC(=O)O)nn1 [Compound 34, 11-(4-(8-carboxyoctyl)-1H-1,2,3-triazol-1-yl)undecyl (2-(trimethylammonio)ethyl) phosphate inner salt]
- inhibition of growth at 10 µM [1]: 0%

SMILES: C[N+](C)(C)CCOP(=O)([O-])OCCCCCCCCCCCn1cc(CC2CCCC2)nn1 [Compound 28, 11-(4-(cyclopentylmethyl)-1H-1,2,3-triazol-1-yl)undecyl (2-(trimethylammo nio)ethyl) phosphate inner salt]
- inhibition of growth at 10 µM [1]: 58.3%
- % toxicity ± SD at 10 μΜ Mitochondria [2]: 8.99%

SMILES: C[N+](C)(C)CCOP(=O)([O-])OCCCCCCCCCCCn1cc(CCCCCCCCNC(=O)OCc2ccccc2)nn1 [Compound 32, 11-(4-(8-(((benzyloxy)carbonyl)amino)octyl)-1H-1,2,3-triazol-1-yl)undecyl (2-(trimethylammonio)ethyl) phosphate inner salt]
- inhibition of growth at 10 µM [1]: 0%

SMILES: C[N+](C)(C)CCCOP(=O)([O-])OCCCCCCCCCCCn1cc(CC2CCCCC2)nn1 [Compound 33, 11-(4-(cyclohexylmethyl)-1H-1,2,3-triazol-1-yl)undecyl (3-(trimethylammonio)propyl) phosphate inner salt]
- inhibition of growth at 10 µM [1]: 0%
- % toxicity ± SD at 10 μΜ Mitochondria [2]: -1 ± 4.35%

SMILES: CCCCCCCc1nnc(CCCCCCCCCCOP(=O)([O-])OCC[N+](C)(C)C)o1 [Compound 65, 10-(5-heptyl-1,3,4-oxadiazol-2-yl)decyl (2-(trimethylammonio)ethyl) phosphate inner salt]
- inhibition of growth at 10 µM [1]: 92.2%
- % toxicity ± SD at 10 μΜ Mitochondria [2]: 40.25%

SMILES: C[N+](C)(C)CCOP(=O)([O-])OCCCCCn1cc(CCCCCCCCNC(=O)OCc2ccccc2)nn1 [Compound 31, 5-(4-(8-(((benzyloxy)carbonyl)amino)octyl)-1H-1,2,3-triazol-1-yl)pentyl (2-(trimethylammonio)ethyl) phosphate inner salt]
- inhibition of growth at 10 µM [1]: 0%
- % toxicity ± SD at 10 μΜ Mitochondria [2]: 5.07%

SMILES: CCCCCCCCCCCCCCCCOP(=O)([O-])OCC[N+](C)(C)C [Miltefosine, hexadecylphosphocholine, reference compound]
- inhibition of growth at 10 µM [1]: 71.9%
- % toxicity ± SD at 10 μΜ Mitochondria [2]: 3.99%

SMILES: CCCCCCCCCCCc1nnc(CCCCCCCCCCOP(=O)([O-])OCC[N+](C)(C)C)o1 [Compound 66, 2-(trimethylammonio)ethyl (10-(5-undecyl-1,3,4-oxadiazol-2-yl)decyl) phosphate inner salt]
- inhibition of growth at 10 µM [1]: 69.7%
- % toxicity ± SD at 10 μΜ Mitochondria [2]: 19.78%

SMILES: CCCCCCCCCCc1cc(CCCCCCCCCCOP(=O)([O-])OCC[N+](C)(C)C)no1 [Compound 41, 10-(5-decylisoxazol-3-yl)decyl (2-(trimethylammonio)ethyl) phosphate inner salt]
- inhibition of growth at 10 µM [1]: 63.3%
- % toxicity ± SD at 10 μΜ Mitochondria [2]: 2.99%
